Measured values as given in patent publication US10335445B2, “Compositions and methods of antiallergic phorbol ester and phorbol derivatives as the main active ingredients from the seeds of aquilaria malaccensis” (WE-WIN APPLIED BIO-TECH CO., LTD., priority 2016, dated 2019).

Assays:
RBL-2H3 cells [1] = experiment: A23187-induced degranulation β-hexosaminidase release assay; format: cell-based; conditions: Rattus norvegicus, A23187 1 μM
Description: (§1) Cell culture: The mucosal mast cell-derived rat basophilic leukemia (RBL-2H3) cell line was purchased from the Bioresource Collection and Research Center (Hsin-Chu, Taiwan). Cells were grown in DMEM medium supplemented with 10% FBS and 100 U/mL penicillin plus 100 μg/mL streptomycin. Cells were cultured in 10 cm cell culture dishes at 37° C. in a humidified chamber with 5% CO2 in air.
(§2) Degranulation β-hexosaminidase assay induced by A23187 or antigen: The degree of A23187- and antigen-induced degranulation in RBL-2H3 cells was determined by a β-hexosaminidase release assay as described previously (Chen et al., J. Nat. Prod., 72, 950-953, 2009; Matsuda et al., Bioorg. Med. Chem., 12, 5891-5898, 2004) with following modifications. RBL-2H3 cells were seeded in a 96-well plate (2×10^4 cells/well) for A23187-induced and in 48-well plate (3×10^4 cells/well) for antigen-induced experiment. Cells were treated with various concentrations of the samples for 20 h. Dexamethasone (10 nM) was used as a positive control. The cells for the antigen-induced experiment were first sensitized with anti-DNP IgE (5 μg/mL) for at least 2 h. […] Absorbance was measured at 405 nm on a microplate reader (Multiskan Ascent, Thermo Scientific). The inhibition percentage of β-hexosaminidase release was calculated as the percentage of control value (untreated stimulated cells). […]

RBL-2H3 cells [2] = experiment: antigen (DNP-BSA)-induced degranulation β-hexosaminidase release assay; format: cell-based; conditions: Rattus norvegicus
Description: as §1, §2

CCCCCCC/C=C/C=C/C=C\C(=O)O[C@@H]1[C@@H](C)[C@@]2(O)[C@@H](C=C(CO)C[C@]3(O)C(=O)C(C)=C[C@@H]23)[C@@H]2C(C)(C)[C@]12OC(C)=O [phorbol ester I, 12-O-(2Z,4E,6E)-tetradeca-2,4,6-trienoylphorbol-13-acetate]
IC50 (RBL-2H3 cells [1]): 1.7 nM
IC50 (RBL-2H3 cells [2]): 11 nM
